Experimental data published in patent US9066971B2 (priority 2010, dated 2015).

System: mouse colon 26 cell line
Format: in vivo
Settings: 18 mg/kg aspirin alone, tail vein, twice a week; day 23; compared to PBS alone
Experimental: The shedding microvesicles derived from E. coli, P. aeruginosa, and S. enteritidis were assayed for anticancer activity. A mouse colon 26 cell line was subcutaneously injected at a dose of 1×10^6 cells into mice, and cultured. After one week, a PBS solution containing 1 μg, or 5 μg of each of the Gram-negative bacterial cell-derived microvesicles was injected at a dose of 100 μl twice a week via the tail vein into the mice which were divided into groups, each consisting of three. On day 23 after the transplantation of cancer cells, the sizes of colon cancer tissue were monitored. The volume of cancer tissue was calculated by the equation V=l×s^2/2, wherein 1 is a length of the longest axis of a tumor and s is a length of the axis perpendicular to the longest axis.
The shedding microvesicles derived from S. aureus and Lactobacillus acidophilus were assayed for anticancer activity. […] On day 23 after the transplantation of cancer cells, the sizes of colon cancer tissue were monitored. The volume of cancer tissue was calculated by the equation V=l×s^2/2, wherein 1 is a length of the longest axis of a tumor and s is a length of the axis perpendicular to the longest axis.
A mouse colon 26 cell line was subcutaneously injected at a dose of 1×10^6 cells into mice, and cultured. […] On day 23 after the transplantation of cancer cells, the sizes of colon cancer tissue were monitored. […]

## CC(=O)Oc1ccccc1C(=O)O [aspirin]
  size of colon tumors: no differences in the size of colon tumors
